Test results reported in patent US20110218515A1, “Methods for Treating Acute Myocardial Infarctions and Associated Disorders” (The Regents of the University of California, priority 2009, published 2011).

What was measured:
[1] = system: ischemia-reperfusion rat model; test: Optical mapping, programmed stimulation and VT inducibility of excised hearts 5 wks after MI; assay type: in vivo, Sprague-Dawley rats; details: for conduction heterogeneity vs control: all tested cycle lengths; for rise times of border zones vs control: significant at lowest PCL
Description: After baseline echocardiography, thirty male Sprague-Dawley rats, ages 6-10 weeks, underwent myocardial infarction using an ischemia-reperfusion model. Briefly, rats were anesthetized using inhaled isoflurane (5% induction, 2.5% maintenance, O2 output 1 L/min) and positioned supine on an electrically warmed animal surgery platform. Rats were intubated using a 16-gauge i.v. catheter and then ventilated using a Harvard rodent respirator. After a left thoracotomy and pericardiotomy were performed, a 7-0 Ticron suture was introduced into the myocardium, using the left atrial appendage and right outflow tract as landmarks. The depth of entry was 2 mm, which was slightly greater than the level of the left coronary artery. Both suture ends were then threaded through a PE-90 polyethylene tube 6 in. in length to form a “snare loop” around the artery, closed by pulling on the free ends of the suture. […] The suture was then tightened to occlude the artery for 20 minutes and then removed to allow for reperfusion. The chest was then closed with 5-0 prolene suture, and the animal was allowed to recover. After one week and repeat echocardiography, rats were randomized to placebo rodent feed (control group, n=15) or rodent feed mixed with 1.2% pirfenidone (PFD) (treatment group, n=15) for four weeks. All experiments and data analyses were performed with the operator blinded to treatment group. Optical mapping is a technique to perform high-resolution electrophysiologic evaluation of the cardiac tissue. To summarize the procedure, ten thousand simultaneous optical action potentials were recorded with a 100×100 CMOS camera within a 19 mm×19 mm mapping field on the epicardium of the LV anterior wall. Using a 1000-W tungsten-halogen light source, fluorescence was excited with an excitation filter of 530 nm and transmitted with an emission long-pass filter of >630 nm. Fluorescent optical maps were acquired at 2000 Hz during programmed electrical stimulation. Optical mapping was performed 5 wks after MI. Rats were injected with heparin (500 U ip) 15 min before excision of the heart, and were then anesthetized with pentobarbital sodium (50 mg/kg ip). After adequate anesthesia, the heart was rapidly excised and arrested by immersion in cold cardioplegia solution. The aorta was cannulated and retrogradely perfused, at a rate of 6 mL/min, with 37° C. modified Tyrode solution containing (in mmol/L): 130 NaCl, 20.0 NaHCO3, 1.2 MgCl2, 4.0 KCl, 5.6 glucose, and 1.8 CaCl2, gassed with 95% 02/5% C02. Extraneous tissue was carefully removed from the heart. The cannulated heart was then placed in 37° C. Tyrode solution in a specialized temperature-controlled optical recording chamber (maintained at 37° C.) while ECG, perfusion rate, and temperature were measured continuously for the duration of the experiment. Before optical recordings, Tyrode solution containing voltage-sensitive dye PGH I (10 μL of 5 mM stock solution) was perfused through the preparation over a 5-min period. Once a cannulated heart was perfused with PGH I, it was placed in the optical chamber with its LV anterior wall pressed against the imaging window. […] During optical recordings, contractility was blocked with 15 mM butadione monoxime (BDM). Ventricular epicardium bipolar pacing, at a stimulus amplitude of 2× threshold, was performed on normal tissue near the infarct zone. Mapping was recorded during pacing drives of 250 ms to 90 ms (decremented by 10 ms), as well as during S1-S2 pacing using a basic cycle length (BCL) of 200 ms and maximum S2 of 150 ms and decremented by 10 ms. Programmed stimulation, with up to three extrastimuli, and burst pacing (from 90 ms to 60 ms) were used to assess arrhythmia inducibility. Inducibility was defined as the ability to provoke sustained (>30 s) ventricular tachycardia (VT) or ventricular fibrillation. Maps were also captured during programmed stimulation and with all episodes of arrhythmia. […]

[2] = system: ischemia-reperfusion rat model; test: Histological analysis of infarct size and fibrosis; assay type: in vivo, Sprague-Dawley rats
Description: After baseline echocardiography, thirty male Sprague-Dawley rats, ages 6-10 weeks, underwent myocardial infarction using an ischemia-reperfusion model. Briefly, rats were anesthetized using inhaled isoflurane (5% induction, 2.5% maintenance, O2 output 1 L/min) and positioned supine on an electrically warmed animal surgery platform. Rats were intubated using a 16-gauge i.v. catheter and then ventilated using a Harvard rodent respirator. After a left thoracotomy and pericardiotomy were performed, a 7-0 Ticron suture was introduced into the myocardium, using the left atrial appendage and right outflow tract as landmarks. The depth of entry was 2 mm, which was slightly greater than the level of the left coronary artery. Both suture ends were then threaded through a PE-90 polyethylene tube 6 in. in length to form a “snare loop” around the artery, closed by pulling on the free ends of the suture. […] The suture was then tightened to occlude the artery for 20 minutes and then removed to allow for reperfusion. The chest was then closed with 5-0 prolene suture, and the animal was allowed to recover. After one week and repeat echocardiography, rats were randomized to placebo rodent feed (control group, n=15) or rodent feed mixed with 1.2% pirfenidone (PFD) (treatment group, n=15) for four weeks. All experiments and data analyses were performed with the operator blinded to treatment group.
Ventricular tissue samples were fixed in 10% neutral buffered formalin. The samples were embedded in paraffin, sectioned (10-μm thick), and then stained with Masson's trichrome or Sirius red with fast green counterstain. Stained slides were examined under light microscopy, digitized using a high-resolution scanner, and analyzed using Photoshop CS software. Infarct areas on Masson's trichome corresponded tightly with areas of dense Sirius red staining with minimal to no fast green. Infarct scar area and total area of left ventricular myocardium, for all sections, were manually traced in the digital images and automatically calculated by the software. Infarct size, expressed as a percentage, was measured by dividing the sum of infarct areas from all sections by the sum of LV areas from all sections and multiplying by 100.
The total area of fibrosis was also assessed. After excluding the infarct area (defined as dense fibrosis), fibrosis in the border and non-infarct zones was quantified from digital photomicrographs of the Sirius red-stained sections. Areas containing blood vessels and perivascular interstitial cells were also excluded from fibrosis quantification. The red pixel content of digitized images relative to the total tissue area was counted by using the Adobe Photoshop CS software.

[3] = system: ischemia-reperfusion rat model; details: in vivo
Description: After baseline echocardiography, thirty male Sprague-Dawley rats, ages 6-10 weeks, underwent myocardial infarction using an ischemia-reperfusion model. Briefly, rats were anesthetized using inhaled isoflurane (5% induction, 2.5% maintenance, O2 output 1 L/min) and positioned supine on an electrically warmed animal surgery platform. Rats were intubated using a 16-gauge i.v. catheter and then ventilated using a Harvard rodent respirator. After a left thoracotomy and pericardiotomy were performed, a 7-0 Ticron suture was introduced into the myocardium, using the left atrial appendage and right outflow tract as landmarks. The depth of entry was 2 mm, which was slightly greater than the level of the left coronary artery. Both suture ends were then threaded through a PE-90 polyethylene tube 6 in. in length to form a “snare loop” around the artery, closed by pulling on the free ends of the suture. […] The suture was then tightened to occlude the artery for 20 minutes and then removed to allow for reperfusion. The chest was then closed with 5-0 prolene suture, and the animal was allowed to recover. After one week and repeat echocardiography, rats were randomized to placebo rodent feed (control group, n=15) or rodent feed mixed with 1.2% pirfenidone (PFD) (treatment group, n=15) for four weeks. All experiments and data analyses were performed with the operator blinded to treatment group. […]

**Q.** Which “fluorescence amplitude in the border zones vs control” value [1] does the source give for `Cc1ccc(=O)n(-c2ccccc2)c1` [pirfenidone] here?
**A.** The value was “trend toward higher amplitudes”.

**Q.** And the “decrease in VT susceptibility vs control” value ([1]; 5 wks after MI)?
**A.** Its value is “almost three-fold decrease”.

**Q.** What about the “rate of VT induction” value ([1]; 5 wks after MI, controls 73.3%, p=0.027) of the same molecule?
**A.** Its value is 28.6%.

**Q.** And the “conduction velocities in the border zones vs control” value ([1]; all pacing cycle lengths, p<0.05)?
**A.** Its value is “significantly faster”.

**Q.** And the “conduction heterogeneity vs control” value ([1]; p=0.146)?
**A.** Its value is “trend toward lower conduction heterogeneity”.

**Q.** And the “conduction heterogeneity vs control” value ([1]; p=0.146, listed as PFD)?
**A.** The value was “trend toward higher conduction heterogeneity indices in control animals”.

**Q.** What about the “maximal rate of AP rise (dF/dt) of border zones vs control” value ([1]; trend at all PCLs) of the same molecule?
**A.** Its value is “faster than the rise of control border zones”.

**Q.** And the “rise times of border zones vs control” value ([1]; trend at all PCLs)?
**A.** The value was “shorter”.

**Q.** And the “rise times of border zones vs control” value ([1]; trend at all PCLs, listed as PFD)?
**A.** The value was “lower than those of control border zones”.

**Q.** And the “amount of fibrosis (including border zones and non-MI areas and infarct scar)” value ([2]; controls 23±2%, p=0.01)?
**A.** The value was 13±3%.

**Q.** What about the “total amount of fibrosis and extra-infarct fibrosis” value ([2]; rat MI model) of the same molecule?
**A.** The value was “attenuated”.

**Q.** And the “infarct size, percent of total myocardium” value ([2]; rat MI model, controls 18%±2.7%, p=0.022)?
**A.** Its value is 10±1.9%.

**Q.** And the “fibrosis within the infarct border zone” value ([2]; rat MI model, vs control infarcts)?
**A.** Its value is “not only decreased but its distribution appeared less heterogeneous”.

**Q.** And the “mortality, CHF, or arrhythmias in treated animals” value [3]?
**A.** The value was “No increased mortality, CHF, or arrhythmias”.
